# Biological target: hQC (Homo sapiens, UniProt Q16769)
# Assay: Inhibitor assay for glutaminyl cyclase activity (fluorometric, H-Gln-βNA / H-Gln-AMC)
# Format: biochemical
# Conditions: compound from preparative synthesis, purified
# How it was run: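 Ki values came from fitting progress curves to a competitive inhibition model; rapid screens used 4 mM inhibitor with substrate at KM. QC activity was read at 30 °C via auxiliary pyroglutamyl aminopeptidase releasing βNA (0.2 mM H-Gln-βNA, 0.2 M Tris pH 8.0, 20 mM EDTA) or AMC (0.05 M Tris pH 8.0, 5 mM EDTA).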
# Chain of hQC (Q16769 29-361): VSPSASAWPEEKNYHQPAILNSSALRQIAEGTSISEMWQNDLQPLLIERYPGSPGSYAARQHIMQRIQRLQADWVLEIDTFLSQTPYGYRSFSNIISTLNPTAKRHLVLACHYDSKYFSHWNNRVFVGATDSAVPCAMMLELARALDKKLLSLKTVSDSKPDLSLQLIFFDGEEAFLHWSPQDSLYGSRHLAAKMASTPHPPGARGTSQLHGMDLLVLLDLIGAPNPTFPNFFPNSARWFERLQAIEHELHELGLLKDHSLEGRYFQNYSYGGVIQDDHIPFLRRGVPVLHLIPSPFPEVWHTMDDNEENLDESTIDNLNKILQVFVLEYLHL
row,Ki [nM],Compound
1,55.8,"CC1=C(O)C(=O)N(c2ccc3nc[nH]c3c2)C1c1c(F)ccc(F)c1Cl (stereo not drawn) [Compound 472, 1-(1H-benzo[d]imidazol-6-yl)-5-(2-chloro-3,6-difluorophenyl)-3-hydroxy-4-methyl-1H-pyrrol-2(5H)-one]"

# Same assay, conditions: compound from preparative synthesis, purified; read-out: IC50 hQC
row,IC50 [nM],Compound
1,4.5,"CC(C)CC(=O)C1=C(O)C(=O)N(c2ccc3[nH]cnc3c2)C1c1ccc2cccc(O)c2n1 (stereo not drawn) [Compound 327, 1-(1H-Benzoimidazol-5-yl)-3-hydroxy-5-(8-hydroxy-quinolin-2-yl)-4-(3-methyl-butyryl)-1,5-dihydro-pyrrol-2-one]"
2,203,"CCCC(=O)C1=C(O)C(=O)N(c2ccc3[nH]cnc3c2)C1c1ccc(C)o1 (stereo not drawn) [Compound 256, 1-(1H-Benzoimidazol-5-yl)-4-butyryl-3-hydroxy-5-(5-methyl-furan-2-yl)-1,5-dihydro-pyrrol-2-one]"

# Same assay, conditions: read-out: IC50
row,Compound,IC50 [nM]
1,"COc1ccc(C2C(C)=C(O)C(=O)N2CCCn2ccnc2)cc1 (stereo not drawn) [Compound 27, 3-Hydroxy-1-(3-imidazol-1-yl-propyl)-5-(4-methoxy-phenyl)-4-methyl-1,5-dihydro-pyrrol-2-one]",4000
2,"O=C1C(O)=C(c2ccc(O)cc2)C(c2ncc[nH]2)N1CCCn1ccnc1 (stereo not drawn) [Compound 168, 3-Hydroxy-4-(4-hydroxy-phenyl)-5-(1H-imidazol-2-yl)-1-(3-imidazol-1-yl-propyl)-1,5-dihydro-pyrrol-2-one]",2200
3,"CCCC(=O)C1=C(O)C(=O)N(c2ccc3[nH]cnc3c2)C1c1ccc[nH]1 (stereo not drawn) [Compound 355, 1-(1H-Benzoimidazol-5-yl)-3-butyryl-4-hydroxy-1,2-dihydro-1′H-[2,2′]bipyrrolyl-5-one]",8680
4,"Cc1cccc(C2C(c3cccc(O)c3)=C(O)C(=O)N2c2ccc3[nH]cnc3c2)c1 (stereo not drawn) [Compound 434, 1-(1H-Benzoimidazol-5-yl)-3-hydroxy-4-(3-hydroxy-phenyl)-5-m-tolyl-1,5-dihydro-pyrrol-2-one]",3640
5,"CC(=O)C1=C(O)C(=O)N(c2ccc3[nH]cnc3c2)C1CCC(=O)O (stereo not drawn) [Compound 450, 3-[3-Acetyl-1-(1H-benzoimidazol-5-yl)-4-hydroxy-5-oxo-2,5-dihydro-1H-pyrrol-2-yl]-propionic acid]",9490
6,"CCC1C(C(C)=O)=C(O)C(=O)N1c1ccc2[nH]cnc2c1 (stereo not drawn) [Compound 439, 4-Acetyl-1-(1H-benzoimidazol-5-yl)-5-ethyl-3-hydroxy-1,5-dihydro-pyrrol-2-one]",2740
7,"CCC1=C(O)C(=O)N(CCCn2ccnc2)C1/C=C/c1ccccc1 (stereo not drawn) [Compound 235, 4-Ethyl-3-hydroxy-1-(3-imidazol-1-yl-propyl)-5-(styryl)-1,5-dihydro-pyrrol-2-one]",5800
8,"O=C1C(O)=C(c2c[nH]c3ccccc23)C(c2ccc(O)cc2)N1CCCn1ccnc1 (stereo not drawn) [Compound 145, 3-Hydroxy-5-(4-hydroxy-phenyl)-1-(3-imidazol-1-yl-propyl)-4-(1H-indol-3-yl)-1,5-dihydro-pyrrol-2-one]",400
9,"CC1=C(O)C(=O)N(CCCn2ccnc2)C1c1ncc[nH]1 (stereo not drawn) [Compound 40, 3-Hydroxy-5-(1H-imidazol-2-yl)-1-(3-imidazol-1-yl-propyl)-4-methyl-1,5-dihydro-pyrrol-2-one]",2200
10,"CCC1=C(O)C(=O)N(CCCn2ccnc2)C1C1CC1 (stereo not drawn) [Compound 246, 5-Cyclopropyl-4-ethyl-3-hydroxy-1-(3-imidazol-1-yl-propyl)-1,5-dihydro-pyrrol-2-one]",1300
11,"Cc1ccc(C2C(C(=O)c3ccc(Cl)cc3)=C(O)C(=O)N2c2ccc3[nH]cnc3c2)o1 (stereo not drawn) [Compound 459, 1-(1H-Benzoimidazol-5-yl)-4-(4-chloro-benzoyl)-3-hydroxy-5-(5-methyl-furan-2-yl)-1,5-dihydro-pyrrol-2-one]",2110
12,"CC(C)(C)C(=O)C1=C(O)C(=O)N(c2ccc3[nH]cnc3c2)C1c1cc[nH]n1 (stereo not drawn) [Compound 405, 1-(1H-Benzoimidazol-5-yl)-4-(2,2-dimethyl-propionyl)-3-hydroxy-5-(1H-pyrazol-3-yl)-1,5-dihydro-pyrrol-2-one]",2200
13,"O=C1C(O)=C(c2ccccc2)C(c2c(F)ccc(Cl)c2F)N1c1ccc2[nH]cnc2c1 (stereo not drawn) [Compound 339, 1-(1H-Benzoimidazol-5-yl)-5-(3-chloro-2,6-difluoro-phenyl)-3-hydroxy-4-phenyl-1,5-dihydro-pyrrol-2-one]",580
14,"CCCCC1C(c2ccc(O)cc2)=C(O)C(=O)N1CCCn1ccnc1 (stereo not drawn) [Compound 177, 5-Butyl-3-hydroxy-4-(4-hydroxy-phenyl)-1-(3-imidazol-1-yl-propyl)-1,5-dihydro-pyrrol-2-one]",40
15,"CCCC(=O)C1=C(O)C(=O)N(c2ccc3[nH]cnc3c2)C1c1ccc(C)o1 (stereo not drawn) [Compound 256, 1-(1H-Benzoimidazol-5-yl)-4-butyryl-3-hydroxy-5-(5-methyl-furan-2-yl)-1,5-dihydro-pyrrol-2-one]",4
16,"Cc1ccc(C2C(c3cccc(O)c3)=C(O)C(=O)N2CCCn2ccnc2)cc1C (stereo not drawn) [Compound 15, 5-(3,4-Dimethyl-phenyl)-3-hydroxy-4-(3-hydroxy-phenyl)-1-(3-imidazol-1-yl-propyl)-1,5-dihydro-pyrrol-2-one]",1300
17,"O=C1C(O)=C(c2c[nH]c3ccccc23)C(c2cc(Cl)cc(Cl)c2O)N1CCCn1ccnc1 (stereo not drawn) [Compound 113, 5-(3,5-Dichloro-2-hydroxy-phenyl)-3-hydroxy-1-(3-imidazol-1-yl-propyl)-4-(1H-indol-3-yl)-1,5-dihydro-pyrrol-2-one]",1300
18,"Cc1ccc(O)c(C2C(C(=O)C3CC3)=C(O)C(=O)N2c2ccc3[nH]cnc3c2)c1 (stereo not drawn) [Compound 343, 1-(1H-Benzoimidazol-5-yl)-4-cyclopropanecarbonyl-3-hydroxy-5-(2-hydroxy-5-methyl-phenyl)-1,5-dihydro-pyrrol-2-one]",3280
19,"CC1=C(O)C(=O)N(CCCn2ccnc2)C1C (stereo not drawn) [Compound 31, 3-Hydroxy-1-(3-imidazol-1-yl-propyl)-4,5-dimethyl-1,5-dihydro-pyrrol-2-one]",6700
20,"O=C(O)c1ccc(C2C(c3c[nH]c4ccccc34)=C(O)C(=O)N2c2ccc3[nH]cnc3c2)o1 (stereo not drawn) [Compound 451, 5-[1-(1H-Benzoimidazol-5-yl)-4-hydroxy-3-(1H-indol-3-yl)-5-oxo-2,5-dihydro-1H-pyrrol-2-yl]-furan-2-carboxylic acid]",2560
21,"CC(C)CC(=O)C1=C(O)C(=O)N(c2ccc3[nH]cnc3c2)C1c1ccc(-c2ccccn2)cc1 (stereo not drawn) [Compound 455, 1-(1H-Benzoimidazol-5-yl)-3-hydroxy-4-(3-methyl-butyryl)-5-(4-pyridin-2-yl-phenyl)-1,5-dihydro-pyrrol-2-one]",130
22,"CC1=C(O)C(=O)N(CCCn2ccnc2)C1c1ccccc1O (stereo not drawn) [Compound 28, 3-Hydroxy-5-(2-hydroxy-phenyl)-1-(3-imidazol-1-yl-propyl)-4-methyl-1,5-dihydro-pyrrol-2-one]",400
23,"O=C1C(O)=C(c2ccccc2)C(c2ccccn2)N1CCCn1ccnc1 (stereo not drawn) [Compound 101, 3-Hydroxy-1-(3-imidazol-1-yl-propyl)-4-phenyl-5-pyridin-2-yl-1,5-dihydro-pyrrol-2-one]",400

# Results, then the compound that gave them:
row,IC50 [nM],Compound
1,2650,"CCCC(=O)C1=C(O)C(=O)N(c2ccc3[nH]cnc3c2)C1c1ccc(CO)o1 (stereo not drawn) [Compound 432, 1-(1H-Benzoimidazol-5-yl)-4-butyryl-3-hydroxy-5-(5-hydroxymethyl-furan-2-yl)-1,5-dihydro-pyrrol-2-one]"
2,400,"CCC1=C(O)C(=O)N(CCCn2ccnc2)C1C1CCC=CO1 (stereo not drawn) [Compound 237, 5-(3,4-Dihydro-2H-pyran-2-yl)-4-ethyl-3-hydroxy-1-(3-imidazol-1-yl-propyl)-1,5-dihydro-pyrrol-2-one]"
3,4000,"CC(C)C1=C(O)C(=O)N(CCCn2ccnc2)C1c1cccs1 (stereo not drawn) [Compound 71, 3-Hydroxy-1-(3-imidazol-1-yl-propyl)-4-isopropyl-5-thiophen-2-yl-1,5-dihydro-pyrrol-2-one]"
4,9490,"Cc1cccc(C2C(C(C)C)=C(O)C(=O)N2c2ccc3[nH]cnc3c2)n1 (stereo not drawn) [Compound 430, 1-(1H-Benzoimidazol-5-yl)-3-hydroxy-4-isopropyl-5-(6-methyl-pyridin-2-yl)-1,5-dihydro-pyrrol-2-one]"
5,1300,"O=C1C(O)=C(c2ccc(O)cc2)C(C2=CCCCC2)N1CCCn1ccnc1 (stereo not drawn) [Compound 164, 5-Cyclohex-1-enyl-3-hydroxy-4-(4-hydroxy-phenyl)-1-(3-imidazol-1-yl-propyl)-1,5-dihydro-pyrrol-2-one]"
6,1750,"Cc1cccc(C2C(C(=O)C3CCCCC3)=C(O)C(=O)N2c2ccc3[nH]cnc3c2)n1 (stereo not drawn) [Compound 381, 1-(1H-Benzoimidazol-5-yl)-4-cyclohexanecarbonyl-3-hydroxy-5-(6-methyl-pyridin-2-yl)-1,5-dihydro-pyrrol-2-one]"
7,40,"CC(=O)C1=C(O)C(=O)N(c2ccc3[nH]cnc3c2)C1c1cnc2ccccc2c1 (stereo not drawn) [Compound 360, 4-Acetyl-1-(1H-benzoimidazol-5-yl)-3-hydroxy-5-quinolin-3-yl-1,5-dihydro-pyrrol-2-one]"
8,310,"Cc1ccc2occ(C3C(c4ccc(O)cc4)=C(O)C(=O)N3c3ccc4[nH]cnc4c3)c(=O)c2c1 (stereo not drawn) [Compound 280, 1-(1H-Benzoimidazol-5-yl)-3-hydroxy-4-(4-hydroxy-phenyl)-5-(6-methyl-4-oxo-4H-chromen-3-yl)-1,5-dihydro-pyrrol-2-one]"
9,4,"CC(C)CC(=O)C1=C(O)C(=O)N(c2ccc3[nH]cnc3c2)C1c1ccc2cccc(O)c2n1 (stereo not drawn) [Compound 327, 1-(1H-Benzoimidazol-5-yl)-3-hydroxy-5-(8-hydroxy-quinolin-2-yl)-4-(3-methyl-butyryl)-1,5-dihydro-pyrrol-2-one]"
10,1390,"Cc1cc(C2C(c3ccc(O)cc3)=C(O)C(=O)N2c2ccc3[nH]cnc3c2)oc1C (stereo not drawn) [Compound 271, 1-(1H-Benzoimidazol-5-yl)-5-(4,5-dimethyl-furan-2-yl)-3-hydroxy-4-(4-hydroxy-phenyl)-1,5-dihydro-pyrrol-2-one]"
11,470,"CC1=C(O)C(=O)N(c2ccc3nc[nH]c3c2)C1c1c(F)ccc(F)c1Cl (stereo not drawn) [Compound 472, 1-(1H-benzo[d]imidazol-6-yl)-5-(2-chloro-3,6-difluorophenyl)-3-hydroxy-4-methyl-1H-pyrrol-2(5H)-one]"
12,400,"O=C1C(O)=C(c2ccccc2)C(C(F)(F)F)N1CCCn1ccnc1 (stereo not drawn) [Compound 96, 3-Hydroxy-1-(3-imidazol-1-yl-propyl)-4-phenyl-5-trifluoromethyl-1,5-dihydro-pyrrol-2-one]"
13,40,"O=C1C(O)=C(c2ccc(O)cc2)C(c2cccc(Cl)c2)N1CCCn1ccnc1 (stereo not drawn) [Compound 179, 5-(3-Chloro-phenyl)-3-hydroxy-4-(4-hydroxy-phenyl)-1-(3-imidazol-1-yl-propyl)-1,5-dihydro-pyrrol-2-one]"

# From patent US8278345B2, “Inhibitors of glutaminyl cyclase” (Probiodrug AG, priority 2006, dated 2012)
